From patent publication US7875744B2, “4-((phenoxyalkyl)thio)-phenoxyacetic acids and analogs” (Janssen Pharmaceutica NV, priority 2004, dated 2011) come the findings set out here.

Type in all cases: cell-based
Holding throughout (details): HEK293 cells co-transfected with PPAR LBD-GAL4 and UAS-luciferase; 18-24 hrs treatment

One test concerns the target T1, PPAR delta (Homo sapiens, UniProt Q03181).
T1 construct: expressed in transfected cells; host or cells: HEK293
T1 sequence (Q03181 211-439 limits assumed): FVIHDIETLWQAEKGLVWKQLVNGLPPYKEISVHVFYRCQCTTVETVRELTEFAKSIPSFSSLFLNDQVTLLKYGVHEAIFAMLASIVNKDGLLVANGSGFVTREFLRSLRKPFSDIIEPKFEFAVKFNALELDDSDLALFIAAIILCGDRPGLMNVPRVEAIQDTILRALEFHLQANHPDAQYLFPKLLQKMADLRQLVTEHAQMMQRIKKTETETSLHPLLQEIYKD
The experiment in a line: Transfection assay for PPAR receptors (GAL4-LBD luciferase reporter in HEK293 cells), PPAR delta. Here is the method: (§1) Transfection Assay Method for PPAR Receptors
(§2) HEK293 cells were grown in DMEM/F12 medium supplemented with 10% FBS and glutamine (Invitrogen) and incubated in a 5% CO2 incubator at 37° C. The cells were co-transfected using DMRIE-C reagent (Invitrogen) in serum free medium (Opti-MEM, Invitrogen) with two mammalian expression plasmids, one containing the DNA sequence coding for the ligand binding domains of either PPARα, γ or 6 fused to the yeast GAL4 DNA binding domain and the other containing the promoter sequence of the yeast GAL4 (UAS) fused to the firefly luciferase cDNA reporter. The next day, the medium was changed to DMEM/F12 medium supplemented with 5% charcoal treated serum (Hyclone) and glutamine. After 6 hrs the cells were trypsinized and seeded at a density of 50,000 cells/well into 96 well plates and incubated overnight as above. The cells were then treated with test compounds or vehicle and incubated for 18-24 hrs as above. Luciferase reporter activity was measured using the Steady-Glo Luciferase Assay Kit from Promega. DMRIE-C Reagent was purchased from GIBCO Cat. No. 10459-014. OPTI-MEM I Reduced Serum Medium was purchased from GIBCO (Cat. No. 31985). Steady-Glo Luciferase Assay Kit was purchased from Promega (Part# E254B).
(§3) A variety of example compounds have been made and tested, with a range of in vitro results. […]

The target of the next test is T2, PPAR gamma (Homo sapiens, UniProt P37231).
T2 construct: expressed in transfected cells; host or cells: HEK293
T2 sequence (P37231 238-503 limits assumed): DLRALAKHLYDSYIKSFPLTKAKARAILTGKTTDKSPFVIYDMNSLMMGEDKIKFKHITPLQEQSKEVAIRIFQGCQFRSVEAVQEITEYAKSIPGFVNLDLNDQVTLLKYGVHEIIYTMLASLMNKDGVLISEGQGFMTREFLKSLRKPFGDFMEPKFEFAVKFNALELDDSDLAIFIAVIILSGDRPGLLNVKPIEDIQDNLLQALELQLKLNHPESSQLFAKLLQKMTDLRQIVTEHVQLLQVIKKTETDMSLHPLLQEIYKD
In words: Transfection assay for PPAR receptors (GAL4-LBD luciferase reporter in HEK293 cells), PPAR gamma. Here is the method:
as §1, §2, §3
(A reporter such as luciferase makes a cellular process visible.)

The target of a further test is T3, PPAR alpha (Homo sapiens, UniProt Q07869).
T3 construct: expressed in transfected cells; host or cells: HEK293
T3 sequence (Q07869 239-466 limits assumed): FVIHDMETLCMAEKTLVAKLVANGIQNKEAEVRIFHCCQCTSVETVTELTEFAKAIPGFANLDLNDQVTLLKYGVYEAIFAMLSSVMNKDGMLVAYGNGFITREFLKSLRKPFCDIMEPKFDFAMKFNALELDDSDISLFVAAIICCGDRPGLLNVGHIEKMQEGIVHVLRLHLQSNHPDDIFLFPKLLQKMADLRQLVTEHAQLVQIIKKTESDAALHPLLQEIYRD
In words: Transfection assay for PPAR receptors (GAL4-LBD luciferase reporter in HEK293 cells), PPAR alpha. The method, then: as §1, §2, §3

`C=C(COc1ccc(OC(F)(F)F)cc1)CSc1ccc(OC(C)(C)C(=O)O)c(C)c1` [Compound 2]: the EC50 – broadly, the concentration that produces a half-maximal response – worked out at 41.5 nM at PPAR delta, 899 nM at PPAR gamma and 900 nM on PPAR alpha.
